This is an account of results in PMC5983452 (PLoS ONE, 2018).

Structures are written as SMILES. Where two headings read alike, the source gives them in different places.

In assay [1] the target is T1, SMYD2 (Homo sapiens, UniProt Q9NRG4). In words: SMYD2 biochemical methylation assay (3H-SAM, H3,1–29 peptide, flashplate). Also noted: Full length FLAG-SMYD2 and C-terminally Avi-tagged full length SMYD2 (SMYD2-Avi) were cloned into pFastbac vectors; FLAG (N); His tag with TEV cleavage site (N, cleaved yes); made in house; host or cells: Sf9 insect cells (baculovirus). Here is the method: Full length FLAG-SMYD2 and C-terminally Avi-tagged full length SMYD2 (SMYD2-Avi) were cloned into pFastbac vectors containing an N-terminal His tag with TEV cleavage site. Virus production was performed using standard protocols and the proteins were coexpressed in either Sf9 (SMYD2) or Hi Five (SMYD2-Avi) cells. After harvest by centrifugation, cell pellets for both proteins were resuspended, sonicated, and then centrifuged to remove cell debris. Protein was purified using nickel affinity chromatography before and after TEV cleavage in a similar fashion as SMYD3. […] SMYD2-Avi was biotinylated using His-tagged BirA enzyme after dialysis into a low salt buffer and the BirA was removed with a final nickel affinity column. […] SMYD3 assays were performed as previously described using N-terminally GST-tagged MAP3K2 protein substrate. […] Reactions were conducted at room temperature with enzyme and inhibitor incubated for 30 minutes before initiating the reaction with substrates. Dose-response curves were tested in duplicate in each experiment. […] Quenched reactions were transferred to a streptavidin-coated flashplate (Perkin Elmer) for capture of the biotinylated peptide. After 2 h incubation at room temperature, the flashplate was washed once with 0.1% Tween-20 and read on a Perkin Elmer Topcount NXT plate reader. Substrate apparent KM values were determined by measuring the initial velocities (v0) in duplicate while varying one substrate at fixed concentration of the second substrate. […] Percent inhibition by compound (% inh) was calculated from Eq 3 %inh=(1-([…] the signal in the presence of compound and max and min are the signals for the DMSO and background controls respectively. […] Mechanism of inhibition was determined by measuring the inhibitor IC50 values while varying the concentration of one substrate at a fixed concentration of the second substrate equal to its KM value. The inhibition constant Ki was calculated from fitting the IC50 versus varied substrate concentration data using the Cheng-Prusoff equations for mixed-type and noncompetitive inhibition below. α is the coefficient accounting for differences in inhibitor affinity between binding enzyme forms after versus before substrate binding.

Assay [2] deals with T1, SMYD2. The assay is described as follows: Intracellular BTF3 monomethylation (BTF3me1) western blot. As to conditions: read-out: Intracellular Methylation IC50. Also noted: endogenous in cells; host or cells: 313 cancer cell lines. The assay is classed as cell-based. On the procedure: Cells were lysed in 1X RIPA Buffer containing 10% SDS and Halt™ Protease Inhibitor Cocktail (Thermo Fisher Scientific) and incubated on ice for 30 minutes before sonication (Amplitude 20%/10sec) twice. Lysates were spun at […] at 4°C for 10min and normalized for protein concentration by BCA assay (Thermo Fisher Scientific). […] Blots were imaged using the Odyssey Imaging System (LICOR Biosciences). […] BTF3me1 is a custom generated polyclonal antibody, affinity purified from serum of rabbits injected with adjuvant conjugated peptide corresponding to methylated K1 of BTF3 (K(Me)-[…]).
SMYD2 catalyzes the methylation of lysine residues on several proteins, including BTF3 [40].
(Immunoblotting shows a protein as a band on a membrane.)

A further assay deals with KYSE-150. In words: Cell proliferation, KYSE-150. The assay is classed as cell-based. As to conditions: Homo sapiens, read-out: Cellular Proliferation IC50. On the procedure: (§1) Cell lines used in these experiments were obtained from the following sources and were cultured according to conditions specified by the respective cell banks. […] The cell lines listed above were tested for mycoplasma and were negative. Cells were authenticated by STR method or vendor protocols. All 313 cell lines in the CRIPSR pooled screen were purchased from commercial vendors and were STR authenticated and mycoplasma negative. A broad panel of cancer cell lines was screened in the Eurofins Oncopanel. All cells in this panel were mycoplasma negative and STR verified.
Thus, 5 compounds representing 4 distinct pharmacophore series of SMYD2 inhibitors are now available for testing the dependence of cancer lines on SMYD2 activity. […] In stark contrast, however, no correlation is seen between the potency for BTF3 methylation inhibition and anti-proliferative activity among these compounds (Fig 3B).

Assay [3] relates to cell lines found to be sensitive to LLY-507. As to conditions: cited from earlier work.
The test system of another assay is several cell lines. As to conditions: cited from earlier work.
Assay [4] concerns the target T2, SMYD3 (Homo sapiens, UniProt Q9H7B4).
T2 sequence (Q9H7B4 1-428): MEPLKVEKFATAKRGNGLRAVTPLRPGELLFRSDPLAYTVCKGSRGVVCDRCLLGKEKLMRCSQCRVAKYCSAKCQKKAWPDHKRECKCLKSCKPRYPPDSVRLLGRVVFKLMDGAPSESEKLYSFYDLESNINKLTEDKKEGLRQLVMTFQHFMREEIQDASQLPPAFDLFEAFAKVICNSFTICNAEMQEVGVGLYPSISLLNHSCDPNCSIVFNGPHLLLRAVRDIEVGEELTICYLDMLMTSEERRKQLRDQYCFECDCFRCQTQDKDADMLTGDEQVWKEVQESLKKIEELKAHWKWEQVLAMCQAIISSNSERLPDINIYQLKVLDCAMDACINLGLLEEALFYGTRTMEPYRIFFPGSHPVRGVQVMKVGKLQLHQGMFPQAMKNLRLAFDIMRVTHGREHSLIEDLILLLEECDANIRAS
The note with it: read-out: Kd for binding to SMYD3; cited from earlier work.

Assay [5] concerns the target T2, SMYD3. Also noted: endogenous in cells; host or cells: 313 cancer cell lines; method as in Mitchell et al (2016). As to conditions: read-out: Intracellular Methylation IC50; MAP3K2 methylation; ref Mitchell et al (2016); cited from earlier work.
The target of assay [6] is T2, SMYD3. Also noted: Protein purification of both isoforms of full length SMYD3 was performed as previously reported; made in house; method as in Mitchell et al (2016). As to conditions: read-out: Biochemical IC50, ref Mitchell et al (2016); cited from earlier work.
For assay [7], the target named is T2, SMYD3. In words: SMYD3 biochemical methylation assay (3H-SAM, GST-MAP3K2/MEKK2 substrate). Also noted: Protein purification of both isoforms of full length SMYD3 was performed as previously reported; made in house. The note with it: tested in duplicate; read-out: selectivity panel result, SMYD3 (off-target). On the procedure: SMYD3 assays were performed as previously described using N-terminally GST-tagged MAP3K2 protein substrate. […] Reactions were conducted at room temperature with enzyme and inhibitor incubated for 30 minutes before initiating the reaction with substrates. Dose-response curves were tested in duplicate in each experiment. […] Quenched reactions were transferred to a streptavidin-coated flashplate (Perkin Elmer) for capture of the biotinylated peptide. After 2 h incubation at room temperature, the flashplate was washed once with 0.1% Tween-20 and read on a Perkin Elmer Topcount NXT plate reader. Substrate apparent KM values were determined by measuring the initial velocities (v0) in duplicate while varying one substrate at fixed concentration of the second substrate.
Mechanism of inhibition was determined by measuring the inhibitor IC50 values while varying the concentration of one substrate at a fixed concentration of the second substrate equal to its KM value.

In assay [8] the test system is panel of 240 cancer cell lines. In words: Proliferation in a broad panel of 240 cancer cell lines, 2D culture (Eurofins Panlabs Oncopanel). Type of assay: cell-based. As to conditions: for IC50: read-out: anti-proliferative IC50 across the panel of 240 cancer cell lines, 2D culture. On the procedure:
as §1

The test system of a further assay is several enzymes. Also noted: method as in http://www.chemicalprobes.org. As to conditions: ref http://www.chemicalprobes.org; cited from earlier work.
The target in assay [9] is T1, SMYD2. The note with it: read-out: apparent SAM KM (reported); p53 peptide substrate, pH 9.0; 2 (supplemental references); cited from earlier work.
[10] abbreviates: SMYD2, 20 nM SAM, 60 nM H3,1–29 peptide, read-out: Biochemical IC50.

T1 sequence (Q9NRG4 whole entry): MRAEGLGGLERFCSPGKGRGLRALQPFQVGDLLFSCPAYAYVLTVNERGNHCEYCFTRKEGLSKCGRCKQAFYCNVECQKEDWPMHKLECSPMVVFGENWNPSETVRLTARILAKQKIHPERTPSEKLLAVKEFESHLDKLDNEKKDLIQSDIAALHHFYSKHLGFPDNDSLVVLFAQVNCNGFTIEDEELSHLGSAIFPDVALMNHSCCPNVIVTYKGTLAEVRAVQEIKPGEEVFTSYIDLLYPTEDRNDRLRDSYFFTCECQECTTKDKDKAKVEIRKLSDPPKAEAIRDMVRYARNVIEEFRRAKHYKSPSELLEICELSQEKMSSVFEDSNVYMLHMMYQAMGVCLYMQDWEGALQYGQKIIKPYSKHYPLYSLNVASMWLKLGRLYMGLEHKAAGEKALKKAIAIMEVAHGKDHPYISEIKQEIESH

`O=C1COc2c(CCNCCN(C(=O)CCNCCc3ccc(Cl)c(Cl)c3)C3CCCCC3)ccc(O)c2N1` [AZ505, reference compound]: the IC50 on SMYD2 [1] (setting [10]) amounted to 0.051 µM; on SMYD2 [2], 13.9 µM; with KYSE-150 it was 12.8 µM.
Consider `CCN(C(=O)CO)[C@H]1CN(/C(=N\C#N)Nc2cccc(OC(F)F)c2)N=C1c1ccc(Cl)c(Cl)c1` [BAY-598], for which the “impact on cell proliferation or induction of apoptosis” value in assay [3] (cell lines found to be sensitive to LLY-507) is listed as “little impact”. Also, the IC50 in [3] (ref Eggert et al (2016), read-out: Cellular Proliferation IC50) is above 20 µM.
A word on the Kd: it is the free concentration of one partner at which half of the binding sites on the other are occupied at equilibrium, for simple one-to-one binding. Regarding `NC(=O)C1CCN(CC(=O)Nc2ccc(Br)cc2)CC1` [BCI-121], the “inhibition of proliferation of several cell lines” value with several cell lines (at 100 µM) is 20–30%. Further, in the assay with several cell lines (ref Peserico et al (2015), read-out: Cellular Proliferation IC50), the IC50 was above 100 µM. Further, the Kd at SMYD3 [4] is 11.8 µM.
With `O=C1Cc2cc(C(=O)NC3CC4CCC(C3)N4S(=O)(=O)CC3CCN(CCCC(F)(F)F)CC3)c(Cl)cc2N1` (stereo not shown) [EPZ031686], the IC50 was 0.036 µM on SMYD3 [5] and 0.003 µM at SMYD3 [6].
What is called Ki is a dissociation constant, usually derived from enzyme kinetics or from competition with a known ligand. Consider `O=C(NC1CN(Cc2cnn(Cc3ccccc3)c2)C1)c1cn(C2CC2)nn1` [EPZ032597], for which the IC50 on SMYD3 [7] was above 10 µM; at SMYD2 [1] (IC50 at 20 nM SAM, 1 nM SMYD2, 60 nM H3,1-29, 20 nM SAM), 0.021 ± 0.002 µM; at SMYD2 [1] (IC50 at 200 nM SAM, 1 nM SMYD2, 60 nM H3,1-29, 200 nM SAM), 0.025 ± 0.005 µM; at SMYD2 [1] (setting [10]), 0.016 µM; in assay [8], above 10 µM; on SMYD2 [2], 0.031 µM. In addition, in the assay with KYSE-150, the IC50 is above 40 µM. Moreover, at SMYD2 [1] (1 nM enzyme, 20 nM SAM, varied H3,1–29), the “mechanism of inhibition with respect to peptide substrate” value was “noncompetitive”. The Ki on SMYD2 [1] (varied H3,1–29 peptide, Eq 6, read-out: Ki (noncompetitive versus peptide)) is 0.0215 ± 0.0015 µM. Besides, the “growth inhibition on repeat testing of hematologic cancer cell lines” value in [8] (cell lines with lower IC50 in the initial screen) is below 50%.
Take `Cc1cn(CCN2CCN(c3ccccc3-c3cc(C#N)cc(C(=O)NCCCN4CCCC4)c3)CC2)c2ccccc12` [LLY-507, reference compound]: in the assay on several enzymes, the “inhibition of several enzymes (off-target potency)” value is below 1 µM. Also, the IC50 in assay [8] is 1 to 5 µM; in the assay on KYSE-150 it was 1.8 µM.
For orientation: Km means the concentration of substrate that gives half-maximal velocity. Take `C[S+](CC[C@H](N)C(=O)[O-])C[C@H]1O[C@@H](n2cnc3c(N)ncnc32)[C@H](O)[C@@H]1O` (stereo partly drawn) [SAM, S-(5’adenosyl)-L-methionine]: the Km is 0.00034 ± 7e-05 µM at SMYD2 [1] (1 nM SMYD2, 60 nM H3,1–29, Eq 2, upper limit for the true KM, read-out: apparent KM for SAM) and 0.03 to 0.06 µM at SMYD2 [9].
